According to patent US9464064B2, “HCV helicase inhibitors and methods of use thereof” (University of Kansas, priority 2011, dated 2016):

Molecular target: T1, HCV NS3 helicase NS3h_1b(con1) (Hepatitis C virus genotype 1b, UniProt Q9WMX2)
T1 construct: truncated C-terminally His-tagged NS3 proteins lacking the N-terminal protease, called NS3h; His-tag (C); made in house
Assay: MBHA screen of NCI mechanistic set library at 20 μM (percent inhibition, compound interference)
Format: biochemical
Details: compounds at 20 μM; for Inh. (%) (Inhibition): calculated from Equation 1
Experimental: All molecular beacon-based helicase assays (MBHAs) were performed according to known methods (Belon & Frick (2008) supra; Belon & Frick (2009) supra). […] In each flat, black 384-well plate, 56 compounds were tested, in triplicate, along with three negative controls (DMSO only), three positive controls (500 nM dT20), and two wells with no enzyme. Fluorescence was read before ATP (F0) addition and 30 minutes after ATP was added to 1 mM (F30) using a Tecan Infinite M200 fluorescence microplate reader with excitation and emission wavelengths set to 643 and 670 nm, respectively. Percent inhibition was calculated with equation 1, and compound interference in the MBHA was calculated with equation 2.
In Equations 1 and 2, Fc0 is the fluorescence of the reactions containing the test compound before adding ATP, Fc30 is the fluorescence of the test compound reaction 30 minutes after adding ATP. F(−)0 is the average of three DMSO-only negative control reactions before adding ATP and F(−)30 is the average of three DMSO-only reactions 30 minutes after adding ATP.
To identify HCV helicase inhibitors, the MBHA was first used to screen the National Cancer Institute Developmental Therapeutics Program's mechanistic set library. In total, 827 compounds (at 20 μM) were screened using a MBHA with a DNA substrate (Table 1). Compounds were ranked by their ability to inhibit HCV helicase-catalyzed DNA unwinding as calculated from Equation 1.
Compound interference in the MBHA was evaluated by comparing the fluorescence of reactions containing each compound to the fluorescence of DMSO-only negative controls before ATP was added.

[1] = MBHA with DNA substrate, assay interference calculated with Equation 2
[2] = assay interference calculated with Equation 2 (fluorescence vs DMSO-only controls before ATP)

T1 sequence (Q9WMX2 1192-1657): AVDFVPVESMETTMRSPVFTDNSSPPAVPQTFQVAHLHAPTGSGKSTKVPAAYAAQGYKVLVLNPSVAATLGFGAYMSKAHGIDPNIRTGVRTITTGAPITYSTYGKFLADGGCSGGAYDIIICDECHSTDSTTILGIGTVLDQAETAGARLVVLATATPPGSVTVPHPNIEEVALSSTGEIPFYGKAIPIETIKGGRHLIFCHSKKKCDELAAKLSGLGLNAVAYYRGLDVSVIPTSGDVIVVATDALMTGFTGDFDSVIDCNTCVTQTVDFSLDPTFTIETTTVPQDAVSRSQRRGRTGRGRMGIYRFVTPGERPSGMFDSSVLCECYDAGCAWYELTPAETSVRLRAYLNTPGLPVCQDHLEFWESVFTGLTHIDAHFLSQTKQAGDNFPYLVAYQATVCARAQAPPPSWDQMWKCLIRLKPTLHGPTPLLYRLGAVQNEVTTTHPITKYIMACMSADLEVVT

SMILES | Int.* (Ratio) (Interference) [1] | Inh. (%) (Inhibition) (MBHA with DNA substrate) | Inh. (%) (Inhibition) (MBHA with a DNA substrate) | Int.* (Ratio) (Interference) [2]
[O-][n+]1ccccc1[S-].[O-][n+]1ccccc1[S-].[Zn+2] [Compound 68093] | 0.90 | 19.5 | – | –
COc1cc2cc3c4cc(OC)c(OC)cc4cc[n+]3c(C)c2cc1OC.O=C(O)CS(=O)(=O)[O-] [Compound 154890] | 0.29 | 79.4 | – | –
[Cl-].[Cl-].[Cl-].[Rh+3].c1ccc(-c2ccnc3c2ccc2c(-c4ccccc4)ccnc23)cc1.c1ccc(-c2ccnc3c2ccc2c(-c4ccccc4)ccnc23)cc1.c1ccc(-c2ccnc3c2ccc2c(-c4ccccc4)ccnc23)cc1 [Compound 619179] | 0.44 | 23.8 | – | –
O=[N+]([O-])[O-].O=[N+]([O-])[O-].O=[N+]([O-])[O-].[Ga+3] [Compound 15200] | 0.75 | 53.4 | – | –
CC(C)CCCCCCCCCCCCC(=O)NCC(=O)NC1C(C)OC(Nc2ncnc3nc[nH]c23)C(O)C1O (stereo not drawn) [Compound 268251] | 0.96 | 0.2 | – | –
O=C1N[C@@H]2C(=C[C@H](O)[C@@H](O)[C@H]2O)c2cc3c(cc21)OCO3 [Compound 349155] | 0.98 | 4.1 | – | –
Cl.NCCSSCc1ccccc1CSSCCN [Compound 624169] | – | – | 7.7 | 0.96
O=C1NC(=O)[C@H]2[C@H]3C=C[C@@H]([C@@H]12)[C@@H]1[C@H]2C(=O)NC(=O)[C@H]2[C@H]31 [Compound 284356] | 1.10 | 0.0 | – | –
CC1OC1C(=O)C1(O)C(C)C(O)C23OC2(C(O)c2c(O)cccc2C3=O)C1O (stereo not drawn) [Compound 65380] | – | – | 11.3 | 1.03
Cc1cc(N(CCCl)CCCl)ccc1/C=N/NC(=O)Cc1cc(=O)oc2cc(O)ccc12 [Compound 79688] | – | – | 7.5 | 0.97
Cc1cc(N(CC(C)Br)CC(C)Br)ccc1N=Nc1ccccc1C(=O)O (stereo not drawn) [Compound 240419] | 0.94 | −2.7 | – | –
Cl.NC(N)=N/N=C(\c1ccc(Cl)cc1)C1CC1 [Compound 74420] | – | – | −6.1 | 1.10
COC1CC(C)C(OC)c2cc(O)cc(c2O)NC(=O)/C(C)=C/C=C\C(C)C(OC(N)=O)/C(C)=C/C(C)C1OC (stereo not drawn) [Compound 330500] | – | – | 12.0 | 1.04
CCCCCn1cc2c3c(cccc31)C1C=C(C)CN(C)[C@@H]1C2.Cc1ccc(C(=O)OC(C(=O)O)C(OC(=O)c2ccc(C)cc2)C(=O)O)cc1 (stereo not drawn) [Compound 600681] | 0.95 | −19.1 | – | –
Br.CN(C)c1nc(=NCc2ccco2)ss1 [Compound 622608] | 1.01 | −2.1 | – | –
O=[N+]([O-])c1cc(-c2nc(=S)[nH][nH]2)ccc1O [Compound 635563] | – | – | −6.8 | 0.92
C[C@@H]1CC[C@@]2(OC1)O[C@H]1CC3[C@@H]4CC=C5C[C@@H](O[C@@H]6O[C@H](CO)[C@@H](O[C@@H]7O[C@@H](C)[C@H](O[C@@H]8O[C@@H](C)[C@H](O)[C@@H](O)[C@@H]8O)[C@@H](O)[C@H]7O)[C@H](O)[C@H]6O[C@@H]6O[C@@H](C)C(O)[C@@H](O)[C@H]6O)CC[C@]5(C)[C@H]4CC[C@]3(C)[C@H]1[C@@H]2C (stereo partly drawn) [Compound 306864] | 0.86 | 1.3 | – | –
CSc1ccc(NC(=O)CCl)cc1 [Compound 166464] | 1.00 | 3.7 | – | –
Nc1cc2[nH]cnc2c(=O)[nH]1 [Compound 261726] | – | – | 9.6 | 0.96
Nc1ncnc2c1nnn2[C@@H]1O[C@H](CO)[C@@H](O)[C@H]1O [Compound 72961] | – | – | 8.5 | 0.98
CN=c1sc2c(n1C)C(=O)c1ccccc1C2=O [Compound 659501] | – | – | −6.6 | 1.06
O=C([O-])c1cc(I)cc(I)c1O.O=C([O-])c1cc(I)cc(I)c1O.[Mn+2] [Compound 619907] | – | – | −27.2 | 0.86
COc1ccc2cc3[n+](cc2c1OC)CCc1cc2c(cc1-3)OCO2.[Cl-] [Compound 163088] | 0.87 | 13.3 | – | –
CC(C)C(=O)OCN(C)c1nc(N(C)COC(=O)C(C)C)nc(N(C)COC(=O)C(C)C)n1 [Compound 626551] | – | – | −24.9 | 0.90
c1ccc2c(NCCCCCCCCNc3c4ccccc4nc4ccccc34)c3ccccc3nc2c1 [Compound 219734] | 0.26 | 41.8 | – | –
CC(C)OP(=O)(OC(C)C)C(N(C)C)P(=O)(OC(C)C)OC(C)C.[Cl][Sn]([Cl])([Cl])[c]1ccccc1 [Compound 645567] | 1.04 | 2.4 | – | –
CC(O)CCC(=O)c1ccoc1 (stereo not drawn) [Compound 349438] | – | – | 10.5 | 1.01
OC[C@H]1O[C@@H](n2cnc3cncnc32)[C@H](O)[C@@H]1O [Compound 65423] | 1.12 | 2.0 | – | –
CN(C)c1ccc2c(SCC(=O)OCC(=O)[C@@]3(O)CC[C@H]4[C@@H]5CCC6=CC(=O)C=C[C@]6(C)[C@H]5C(=O)C[C@@]43C)c3ccc(N(C)C)cc3nc2c1 [Compound 337851] | 0.29 | 2.3 | – | –

Other lines, results leading:

Int.* (Ratio) (Interference) [1] | Inh. (%) (Inhibition) (MBHA with DNA substrate) | Inh. (%) (Inhibition) (MBHA with a DNA substrate) | Int.* (Ratio) (Interference) [2] | SMILES
– | – | −22.3 | 1.18 | CN(NC1=NCCO1)c1ccc2ccccc2c1 [Compound 664286]
0.46 | 29.7 | – | – | Cc1ccc2c(ccc(C=Cc3ccc(O)c4ncccc34)[n+]2C)c1 [Compound 85700]
– | – | −35.3 | 1.04 | O=C1Cc2c(-c3ccccc3)cc(-c3cccc(Cl)c3)nc2-c2ccccc2N1 [Compound 684480]
– | – | 11.6 | 0.89 | N#CC(=S)Nc1ccc(Cl)c(Cl)c1 [Compound 379531]
0.90 | −2.7 | – | – | COc1ccc2ccccc2c1C1OC(=O)c2ccccc21 (stereo not drawn) [Compound 638504]
– | – | −27.3 | 1.09 | CC1=CC(=O)c2ccccc2C1=O [Compound 4170]
– | – | 7.5 | 0.92 | Cc1ccc(S(=O)(=O)NC(=O)NC2=NC(C)(C)N(c3ccc(Cl)c(Cl)c3)C(N)=N2)cc1 [Compound 603624]
0.93 | −17.1 | – | – | COc1cc(/C=C(\OC(C)=O)c2ccc3c(c2)OCO3)cc(OC)c1OC [Compound 647363]
– | – | −21.0 | 1.04 | N#C/C(=C\c1ccc2ccccc2c1)C(=O)c1ccccc1 [Compound 643186]
0.90 | 3.1 | – | – | CC(=O)c1sc2[n+](c1C)C(=O)/C(=C\c1ccccc1Cl)S2 [Compound 658285]
1.10 | −8.6 | – | – | CN1CCC23c4ccccc4NC1C21CCN(C)C3Nc2ccccc21 [Compound 99016]
1.00 | 18.6 | – | – | Cc1c2c(cc3c1[nH]c1ccccc13)C=NCC2 [Compound 86100]
– | – | −20.3 | 0.90 | O=C1c2ccccc2C(=O)c2nc(-c3ccccc3)c(-c3ccccc3)nc21 [Compound 629713]
– | – | −6.3 | 1.05 | Cc1cccc(Cl)c1NC(=O)/C=C/c1ccccc1 [Compound 191393]
0.93 | −17.5 | – | – | COc1ccc(/C=C2\CCc3ccccc3C2=O)cc1OC [Compound 643175]
0.92 | 55.6 | – | – | Cc1c2ccncc2cc2c1[nH]c1ccccc12 [Compound 87206]
0.97 | 15.2 | – | – | CC(C)c1cccc(O)c(=O)c1 [Compound 18804]
– | – | 8.8 | 0.91 | O=C(/C=C/c1c(O)ccc2ccccc12)c1cccc(O)c1 [Compound 636786]
0.94 | 17.3 | – | – | Cc1ccccc1NC(=O)C(=O)C(c1cnc2ccc([N+](=O)[O-])cc2n1)[N+](=O)[O-] (stereo not drawn) [Compound 644735]
